The source of these data is patent US20100120839A1, “PYRAZOLES USEFUL IN THE TREATMENT OF INFLAMMATION” (Biolipox AB, priority 2007, published 2010).

One assay addresses T1, purified human 15-lipoxygenase (Homo sapiens, UniProt P16050).
T1 sequence (P16050 1-662): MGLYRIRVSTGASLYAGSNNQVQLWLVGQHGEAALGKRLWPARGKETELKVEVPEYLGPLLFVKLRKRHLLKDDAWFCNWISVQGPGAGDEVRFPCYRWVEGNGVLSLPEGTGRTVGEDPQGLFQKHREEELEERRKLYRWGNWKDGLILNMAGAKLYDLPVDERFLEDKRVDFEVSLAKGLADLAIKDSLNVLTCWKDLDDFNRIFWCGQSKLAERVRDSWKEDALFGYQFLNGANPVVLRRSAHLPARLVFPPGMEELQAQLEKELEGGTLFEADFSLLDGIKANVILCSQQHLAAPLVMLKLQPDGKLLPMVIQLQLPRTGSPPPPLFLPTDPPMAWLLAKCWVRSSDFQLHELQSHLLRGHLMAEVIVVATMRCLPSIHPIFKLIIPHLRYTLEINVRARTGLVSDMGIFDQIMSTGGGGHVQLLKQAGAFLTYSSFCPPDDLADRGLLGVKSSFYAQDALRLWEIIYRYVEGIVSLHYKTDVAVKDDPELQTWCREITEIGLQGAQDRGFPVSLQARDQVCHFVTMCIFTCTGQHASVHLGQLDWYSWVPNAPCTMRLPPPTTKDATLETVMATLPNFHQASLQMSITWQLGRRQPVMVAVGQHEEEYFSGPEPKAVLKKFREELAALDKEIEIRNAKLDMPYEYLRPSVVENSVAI
Put plainly: 15-lipoxygenase inhibition assay (arachidonic acid oxidation, reverse phase HPLC readout). The assay is classed as biochemical.
Details: not given
As for the experimental part: The assay employed takes advantage of the ability of lipoxygenases to oxidize polyunsaturated fatty acids, containing a 1,4-cis-pentadiene configuration, to their corresponding hydroperoxy or hydroxyl derivatives. In this particular assay, the lipoxygenase was a purified human 15-lipoxygenase and the fatty acid was arachidonic acid. The assay is performed at room temperature (20-22° C.) and the following are added to each well in a 96-well microtiter plate:
a) 35 μL phosphate buffered saline (PBS) (pH 7.4); b) inhibitor (i.e. compound) or vehicle (0.5 μl DMSO); c) 10 μL of a 10× concentrated solution of 15-lipoxygenase in PBS. […] The plate is then incubated for 10 minutes at room temperature; e) the enzymatic reaction is terminated by the addition of 100 μl methanol; and f) the amount of 15-hydroperoxy-eicosatetraenoic acid or 15-hydroxy-eicosatetraenoic acid is measured by reverse phase HPLC.
Compound `c1ccc2oc(-c3cc[nH]n3)nc2c1` [Example 1, 2-(Pyrazol-3-yl)-benzoxazole] gave an IC50 of 224 nM.

The assay is the same for the next values; noted with them: arachidonic acid substrate, room temperature (20-22° C.), PBS pH 7.4; read-out: IC50.
With `Clc1cc(-c2nc3ccccc3o2)n[nH]1` [Example 11, 2-(5-Chloropyrazol-3-yl)benzoxazole], the IC50 amounted to 33 nM.
In the case of `Fc1cccc2nc(-c3cc(Cl)[nH]n3)oc12` [Example 15, 2-(5-Chloropyrazol-3-yl)-7-fluorobenzoxazole], the IC50 turned out to be 41 nM.
Regarding `Fc1cccc2oc(-c3cc(Cl)[nH]n3)nc12` [Example 17, 2-(5-Chloropyrazol-3-yl)-4-fluorobenzoxazole], the IC50 came out at 49 nM.
As to `Fc1cccc2oc(-c3n[nH]c(Cl)c3Cl)nc12` [Example 18, 2-(4,5-Dichloropyrazol-3-yl)-4-fluorobenzoxazole], the IC50 is 35 nM.
For the compound `Clc1[nH]nc(-c2nc3cccnc3o2)c1Cl` [Example 32, 2-(4,5-Dichloropyrazol-3-yl)oxazolo[5,4-b]pyridine], the IC50 came out at 127 nM.
Consider `FC(F)(F)c1cnc2oc(-c3n[nH]c(Cl)c3Cl)nc2c1` [Example 33, 2-(4,5-Dichloropyrazol-3-yl)-6-(trifluoromethyl)-oxazolo[5,4-b]pyridine], for which the IC50 was 85 nM.
